Literature values as cited in publication PMC3411352 (Biopolymers, 2011).
“And” between values parts separate entries of the source, which are not always exact repeats. Identical values can stand only once. Like-named read-outs stand apart in the source and are kept apart here.

How the values were obtained:
κ opioid receptors [1] = conditions: selectivity
rat μ opioid receptors = rat μ opioid receptors (Rattus norvegicus, UniProt P33535); conditions: read-out: Ki ± SEM μ
rat κ opioid receptors [2] = molecular target: T1, rat κ opioid receptors (Rattus norvegicus, UniProt P34975); conditions: relative to Dyn A (1-13)NH2 (0% control)
rat κ opioid receptors [3] = molecular target: T1, rat κ opioid receptors; conditions: for Ki: read-out: Ki ± SEM κ, κ opioid receptors
κ opioid receptors [4] = molecular target: κ opioid receptors

T1 sequence (P34975 whole entry): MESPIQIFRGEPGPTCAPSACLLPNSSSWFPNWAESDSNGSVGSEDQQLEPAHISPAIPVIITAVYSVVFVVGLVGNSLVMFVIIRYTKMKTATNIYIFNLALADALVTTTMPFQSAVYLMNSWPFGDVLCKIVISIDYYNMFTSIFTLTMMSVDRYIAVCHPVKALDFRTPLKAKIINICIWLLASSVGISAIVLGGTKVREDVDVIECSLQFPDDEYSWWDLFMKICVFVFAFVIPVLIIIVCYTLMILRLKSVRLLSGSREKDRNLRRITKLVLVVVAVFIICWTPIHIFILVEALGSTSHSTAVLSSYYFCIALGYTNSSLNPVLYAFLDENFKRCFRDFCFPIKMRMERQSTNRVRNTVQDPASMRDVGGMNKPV
Chain of rat μ opioid receptors (P33535 whole entry): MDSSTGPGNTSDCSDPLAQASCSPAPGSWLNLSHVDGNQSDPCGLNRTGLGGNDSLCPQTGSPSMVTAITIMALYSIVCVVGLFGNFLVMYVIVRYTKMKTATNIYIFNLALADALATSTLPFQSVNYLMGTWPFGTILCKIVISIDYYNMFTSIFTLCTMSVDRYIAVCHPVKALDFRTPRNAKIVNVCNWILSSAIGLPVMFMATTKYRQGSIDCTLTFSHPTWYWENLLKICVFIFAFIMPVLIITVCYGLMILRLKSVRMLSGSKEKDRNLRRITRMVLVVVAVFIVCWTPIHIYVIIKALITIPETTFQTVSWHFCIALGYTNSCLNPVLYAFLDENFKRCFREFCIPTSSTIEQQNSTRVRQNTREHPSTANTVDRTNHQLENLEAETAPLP

[Pro^3]Dyn A-(1-11)NH2
Ki ratio (κ/μ/δ) (κ opioid receptors [1]): 1/2110/3260

[NMePhe^1]arodyn [Compound 2]
Ki (rat μ opioid receptors): 5060 ± 790 nM | AC % control @ 10 μM (rat κ opioid receptors [2]): 86 ± 1 % control | Ki (rat κ opioid receptors [3]): 4.6 nM and 4.56 nM | Ki ratio (μ/κ) (rat κ opioid receptors [3]; selectivity κ over μ): 1100

Ac[Phe^1,2,3,Arg^4,D-Ala^8]Dyn A(1-11)-NH2 [Compound 1]
AC % control @ 10 μM (rat κ opioid receptors [2]): 88 ± 8 % control | Ki (rat κ opioid receptors [3]): 10 ± 3 nM

[(2S)-Mdp^1]Dyn A-(1-11)NH2 [Dynantin]
Ki (κ opioid receptors [4]; read-out: Ki (κ)): 0.82 nM | Ki ratio (κ/μ/δ) (κ opioid receptors [4]; selectivity): 1/259/198
